Measured values reported in patent US6903104B2, “Indol-3-YL-2-oxoacetamide compounds and methods of use thereof” (National Health Research Institutes, priority 2001, dated 2005).

Experiments:
[1] = test system: nasopharyngeal HONE1 cancer cells; experiment: In vitro cytotoxicity MTS assay, nasopharyngeal HONE1; format: cell-based, human; details: 72 hours
Experimental: (§1) A panel of human cancer cells, gastric NUGC3 and HR, nasopharyngeal HONE1, hepatocellular HEP G2 and HA-22T, colorectal DLD1, lung A549, prostate PC3, breast MCF7 and its adriamycin-resistant MCF7/ADR subline, uterus MES-SA and its adriamycin-resistant MES-SA/Dx5 subline, is purchased from Food Industry Research and Development Institute, Hsinchu, Taiwan R.O.C. or American Type Culture Collection, Manassas, Va. U.S.A., are used in in vitro cytotoxicity assays. The human cells are seeded at a cell density of 3000 or 4500 cells/100 μl/well in 96-well flat-bottom plates and incubated for 24 hours at 37° C. in a 5% CO2 incubator. The testing compounds are dissolved in dimethyl sulfoxide (DMSO) and further diluted into the culture medium for treatments of human cancer cells in vitro. The drug-containing media has a final DMSO concentration of ≦0.3%. The compounds of this invention are prepared in culture media for testing at a range of concentrations from 10, 1, 0.1, 0.01 to 0.001 μM. Each compound solution is (200 μl/well in duplicate) in the cell plates and is treated for 72 hours at 37° C., 5% CO2 in an incubator. Actinomycin D at 5 μM and 0.3% DMSO are used as the positive and vehicle controls, respectively. A colorimetric assay using 3-(4,5-dimethylthiazol-2-yl)-5-(3-carboxymethoxyphenyl)-2-(4-sulfophenyl)-2H-tetrazolium (MTS) and phenazine methosulfate (PMS) is used to determine the potency of the compounds. This assay measures cell viability based on the cellular activity in conversion of a tetrazolium salt into a colored soluble formazan product. The optical density (OD) values are measured at 490 nm with a 1420 multilabel counter VICTOR® from Wallac, Turku, Finland. All of the measured values are subtracted with that of the blank control wells without cells before further calculations. The efficacy data are expressed as a percentage normalized to the vehicle controls as calculated in the following formulae. Inhibitory potency (% of vehicle control)=[(OD490compound−OD490blank)/(OD490vehicle−OD490blank)]×100%. The concentration (IC50) of a test compound that inhibits 50% of the cellular activity is determined.

[2] = test system: murine leukemic P388 cells; experiment: In vivo anticancer activity, murine leukemic P388 model; design: species or system DBA/2J mice; details: P388-inoculated mice; for increase of life span: P.O., daily, 4×; for activity in the increase of life span (dose-response): oral
Experimental: The in vivo anticancer activities of the compounds are evaluated by the following murine leukemic P388 model. Inbred female DBA/2J mice of 4-5 week-old were purchased from the Charles River Laboratories Inc., Wilmington, Mass., USA and the National Laboratory Animals Breeding and Research Center, Taipei, Taiwan, ROC. Murine leukemic P388 cells are purchased from the Japanese Collection of Research Bioresources, Japan. P388 cells are cultured and propagated in RPMI1640 medium supplemented with 50 μM 2-mercaptoethanol and 10% fetal bovine serum. Mice at the age of 6 weeks were grouped as the treatment, negative control and positive control groups at 7 to 8 mice per group. All mice are intravenously inoculated with the P388 cells at one million per mouse one day before the treatments initiated. Compounds of this invention are dissolved in dimethyl sulfoxide (DMSO) and then diluted in 0.5% carboxymethyl cellulose with the final concentration of DMSO less than 0.5%. Different treatment groups are orally given (P.O.), respectively, with compounds of different doses for a pharmacological dose-response relationship. Mice of the negative control group are treated with the dosing vehicle, 0.5% carboxymethyl cellulose. Doxorubicin of the maximal tolerated dose, 10 mg/kg, is given intravenously as an experimental positive control. The cancer cell-inoculated animals are monitored twice daily. The time on which 50% of the P388-inoculated mice is still surviving is defined as the medium survival time and is used to calculate the percentage (normalized to the medium survival time of the control group) of increased in life span after treatment, which is then served as the index of treatment response.

[3] = test system: adriamycin-resistant MCF7/ADR subline; experiment: In vitro cytotoxicity MTS assay, adriamycin-resistant MCF7/ADR; format: cell-based, human; details: 72 hours
Experimental: as §1

[4] = test system: uterus MES-SA cancer cells; experiment: In vitro cytotoxicity MTS assay, uterus MES-SA; format: cell-based, human; details: 72 hours
Experimental: as §1

[5] = test system: colorectal DLD1 cancer cells; experiment: In vitro cytotoxicity MTS assay, colorectal DLD1; format: cell-based, human; details: 72 hours
Experimental: as §1

[6] = test system: lung A549 cancer cells; experiment: In vitro cytotoxicity MTS assay, lung A549; format: cell-based, human; details: 72 hours
Experimental: as §1

[7] = test system: breast MCF7 cancer cells; experiment: In vitro cytotoxicity MTS assay, breast MCF7; format: cell-based, human; details: 72 hours
Experimental: as §1

[8] = test system: adriamycin-resistant MES-SA/Dx5 subline; experiment: In vitro cytotoxicity MTS assay, adriamycin-resistant MES-SA/Dx5; format: cell-based, human; details: 72 hours
Experimental: as §1

[9] = test system: gastric NUGC3 cancer cells; experiment: In vitro cytotoxicity MTS assay, gastric NUGC3; format: cell-based, human; details: 72 hours
Experimental: as §1

[10] = test system: gastric HR cancer cells; experiment: In vitro cytotoxicity MTS assay, gastric HR; format: cell-based, human; details: 72 hours
Experimental: as §1

[11] = test system: prostate PC3 cancer cells; experiment: In vitro cytotoxicity MTS assay, prostate PC3; format: cell-based, human; details: 72 hours
Experimental: as §1

[12] = test system: hepatocellular HEP G2 cancer cells; experiment: In vitro cytotoxicity MTS assay, hepatocellular HEP G2; format: cell-based, human; details: 72 hours
Experimental: as §1

[13] = test system: hepatocellular HA-22T cancer cells; experiment: In vitro cytotoxicity MTS assay, hepatocellular HA-22T; format: cell-based, human; details: 72 hours
Experimental: as §1

Row | SMILES | IC50 [1] | increase of life span ([2]; 25 mg/kg) | increase of life span ([2]; 50 mg/kg) | increase of life span ([2]; 100 mg/kg) | increase of life span ([2]; 200 mg/kg) | activity in the increase of life span (dose-response) [2] | IC50 [3] | IC50 [4] | IC50 [5] | IC50 [6] | IC50 [7] | IC50 [8] | IC50 [9] | IC50 [10] | IC50 [11] | IC50 [12] | IC50 [13]
1 | Cc1cc(NC(=O)C(=O)c2cn(Cc3ccc(C#N)cc3)c3ccccc23)sn1 [Compound 25] | 207 nM | 14 ± 1% | 27 ± 3% | 20 ± 8% | 46 ± 24% | dose-dependent activity | 5.24 µM | 373 nM | 543 nM | 545 nM | 469 nM | 398 nM | 514 nM | 340 nM | 689 nM | 1790 nM | 692 nM
2 | Cc1cc(Cn2cc(C(=O)C(=O)Nc3cc(C)ns3)c3ccccc32)on1 [Compound 56] | 4 nM | 26 ± 27% | 57 ± 20% | 63 ± 17% | 100 ± 21% | dose-dependent activity | 5 µM | 293 nM | 41 nM | 557 nM | 36 nM | 368 nM | 12 nM | 8 nM | 628 nM | 93 nM | 123 nM
